These results are taken from patent US20240287154A1, “MC3R AGONIST PEPTIDES” (The Regents of the University of Michigan, priority 2021, published 2024).

In one test the target is human MC4R (Homo sapiens, UniProt P32245). The test is described as follows: Intracellular cAMP levels in live cells, MC3R selectivity relative to MC4R. It counts as cell-based. The conditions noted are these: cAMP assays in human MC3R and human MC4R stable cell lines. On the technique in general: Cyclic AMP is a second messenger, typically raised through Gs and lowered through Gi signalling.

A further test has as its target T1, human MC3R (Homo sapiens, UniProt P41968).
T1 construct: expressed in transfected cells
The test is described as follows: Intracellular cAMP levels in live cells, MC3R agonist activity. As to conditions: cAMP split-luciferase reporter cell line stably expressing human MC3R; direct agonist effect, measurement window 1. It counts as cell-based. Here is the method:
The stable cell lines were grown and maintained in selection media consisting of Dulbecco's modified Eagle media (DMEM) with 4.5 g/l D-glucose, and 4 mM L-glutamine (Thermo Fisher Scientific, Waltham, MA), supplemented with 10% fetal bovine serum, 100 units/ml penicillin, 100 μg/ml streptomycin, 2.5 μg/ml amphotericin B, 200 μg/ml hygromycin B (for positive selection of the GScAMP22f luciferase reporter), and Geneticin™ (G418) 700 μg/ml (for MC3R or MC4R selection). Actual serum concentration during the assay is estimated to be about 1%. Cell line identity is routinely verified by qPCR and MC3R- and MC4R-specific oligonucleotides.
The assay for the determination of the CAMP response in live cells was described previously. […] Ccells were seeded at a density of 20,000 cells per well using 384-well poly-D lysine-coated, clear bottom, and black-wall assay plates (Corning Inc. Corning, NJ). Cells were allowed to attach to the plates for 18 to 24 h after which growth media was removed and 20 ul of 4% D-luciferin (Promega) in CO2 independent, serum-free medium (Thermo Fisher Scientific) was added to each well. […] Intracellular cAMP levels were measured using an FDSS 7000EX Functional Drug Screening System (Hamamatsu Photonics, Hamamatsu, Japan) in the Center for Chemical Genomics at the Life Sciences Institute. This instrument allowed the in-line addition of test-peptides and receptor agonists while simultaneously acquiring the luminescence signal from live cells. […] A submaximal forskolin (20 μM) concentration was also included to serve as a normalization reference to account for cell number variations and differences in assay transducer efficiency between cell lines.
With this set up it was possible to evaluate the direct agonist effect of the test-peptides on the MC3R and MC4R cell lines during measurement window 1, while the antagonist profile in the presence of EC90 α-MSH was determined on measurement window 2. […] EC50 or IC50 potency values were determined by non-linear regression by fitting the data to a sigmoid four-parameter variable slope model using the GraphPad Prism version 8.4 software package (San Diego CA).

Non-standard residues stand in square brackets, D forms with d. Residues, ends and D or L forms follow the SMILES beside them. Phe(4-Br) = N[C@@H](Cc1ccc(Br)cc1)C(=O)O; Phe(4-I) = N[C@@H](Cc1ccc(I)cc1)C(=O)O; NMeY = CN[C@@H](Cc1ccc(O)cc1)C(=O)O; Nle = CCCC[C@H](N)C(=O)O; dAbu = CC[C@@H](N)C(=O)O

What is called EC50 is the concentration at which the effect is half-maximal.

Chain of human MC4R (P32245 whole entry): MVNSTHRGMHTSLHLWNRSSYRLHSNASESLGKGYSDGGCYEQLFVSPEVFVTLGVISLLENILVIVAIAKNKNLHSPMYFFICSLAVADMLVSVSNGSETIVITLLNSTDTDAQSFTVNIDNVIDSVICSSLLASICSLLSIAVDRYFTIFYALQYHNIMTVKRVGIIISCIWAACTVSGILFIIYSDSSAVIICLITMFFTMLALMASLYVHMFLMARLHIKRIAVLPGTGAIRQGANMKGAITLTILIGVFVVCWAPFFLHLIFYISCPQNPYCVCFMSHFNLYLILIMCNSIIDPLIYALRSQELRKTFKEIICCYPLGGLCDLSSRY
T1 sequence (P41968 whole entry): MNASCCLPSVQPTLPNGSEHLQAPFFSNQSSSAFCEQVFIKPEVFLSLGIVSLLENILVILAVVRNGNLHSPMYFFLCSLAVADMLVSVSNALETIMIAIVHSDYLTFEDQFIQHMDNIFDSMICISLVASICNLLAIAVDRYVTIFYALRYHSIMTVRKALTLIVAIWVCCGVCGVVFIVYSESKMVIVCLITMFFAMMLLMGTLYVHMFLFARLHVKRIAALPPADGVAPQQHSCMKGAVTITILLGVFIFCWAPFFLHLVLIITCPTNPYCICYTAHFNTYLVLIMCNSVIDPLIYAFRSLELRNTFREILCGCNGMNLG

As to `CCCC[C@H](NC(=O)[C@@H](NC(=O)[C@@H](N)Cc1ccc(O)cc1)C(C)C)C(=O)N[C@H](C)C(=O)N[C@@H](Cc1c[nH]cn1)C(=O)N[C@@H](Cc1ccccc1)C(=O)N[C@@H](CCCNC(=N)N)C(=O)N[C@H](Cc1c[nH]c2ccccc12)C(=O)N[C@@H](CC(=O)O)C(=O)N[C@@H](CCCNC(=N)N)C(=O)N[C@@H](Cc1ccccc1)C(N)=O` [CTX-1119, Tyr-Val-Nle-D-Ala-His-Phe-Arg-D-Trp-Asp-Arg-Phe] (H-YV[Nle][dA]HFR[dW]DRF-NH2), the “MC3R selectivity (relative to MC4R)” value at human MC4R is 24. In addition, on human MC3R, the response was half-maximal at 1.9 nM (EC50).

On to `CCCC[C@H](NC(C)=O)C(=O)N[C@H](C)C(=O)N[C@@H](Cc1c[nH]cn1)C(=O)N[C@@H](Cc1ccccc1)C(=O)N[C@@H](CCCNC(=N)N)C(=O)N[C@H](Cc1c[nH]c2ccccc12)C(=O)N[C@@H](CC(=O)O)C(=O)N[C@@H](CCCNC(=N)N)C(=O)N[C@@H](Cc1ccccc1)C(=O)NCC(=O)O` [CTX-1122, Nle-D-Ala-His-Phe-Arg-D-Trp-Asp-Arg-Phe-Gly] (Ac-[Nle][dA]HFR[dW]DRFG-OH), for which, on human MC4R, the “MC3R selectivity (relative to MC4R)” value is on record as 7,703. At human MC3R, this compound came in with an EC50 of 1.2 nM.

In the case of `CCCC[C@H](NC(=O)[C@@H](NC(=O)[C@H](Cc1ccc(O)cc1)NC)C(C)C)C(=O)N[C@H](C)C(=O)N[C@@H](Cc1c[nH]cn1)C(=O)N[C@@H](Cc1ccccc1)C(=O)N[C@@H](CCCNC(=N)N)C(=O)N[C@H](Cc1c[nH]c2ccccc12)C(=O)N[C@@H](CC(=O)O)C(=O)N[C@@H](CCCNC(=N)N)C(=O)N[C@@H](Cc1ccccc1)C(=O)NCC(=O)O` [CTX-1124, NMe-Tyr-Val-Nle-D-Ala-His-Phe-Arg-D-Trp-Asp-Arg-Phe-Gly] (H-[NMeY]V[Nle][dA]HFR[dW]DRFG-OH), the “MC3R selectivity (relative to MC4R)” value on human MC4R is on record as 69. The same compound gave an EC50 on human MC3R of 1.7 nM.

As for `CCCC[C@H](NC(=O)[C@@H](NC(=O)[C@@H](N)Cc1ccc(O)cc1)C(C)C)C(=O)N[C@@H](C)C(=O)N[C@@H](Cc1c[nH]cn1)C(=O)N[C@@H](Cc1ccccc1)C(=O)N[C@@H](CCCNC(=N)N)C(=O)N[C@H](Cc1c[nH]c2ccccc12)C(=O)N[C@@H](CC(=O)O)C(N)=O` [CTX-1129, Tyr-Val-Nle-Ala-His-Phe-Arg-D-Trp-Asp] (H-YV[Nle]AHFR[dW]D-NH2), the “MC3R selectivity (relative to MC4R)” value at human MC4R is recorded as 7.5. At human MC3R, the response was half-maximal at 1.2 nM (EC50).

As for `CCCC[C@H](NC(=O)[C@@H](NC(=O)[C@@H](N)Cc1ccc(O)cc1)C(C)C)C(=O)N[C@H](CC)C(=O)N[C@@H](Cc1c[nH]cn1)C(=O)N[C@@H](Cc1ccccc1)C(=O)N[C@@H](CCCNC(=N)N)C(=O)N[C@H](Cc1c[nH]c2ccccc12)C(=O)N[C@@H](CC(=O)O)C(N)=O` [CTX-1131, Tyr-Val-Nle-D-Abu-His-Phe-Arg-D-Trp-Asp] (H-YV[Nle][dAbu]HFR[dW]D-NH2), the “MC3R selectivity (relative to MC4R)” value on human MC4R worked out at 65. At human MC3R, the EC50 was 6.6 nM.

As to `CCCC[C@H](NC(=O)[C@@H](NC(=O)[C@@H](N)Cc1ccc(O)cc1)C(C)C)C(=O)N[C@H](Cc1ccccc1)C(=O)N[C@@H](Cc1c[nH]cn1)C(=O)N[C@@H](Cc1ccccc1)C(=O)N[C@@H](CCCNC(=N)N)C(=O)N[C@H](Cc1c[nH]c2ccccc12)C(=O)N[C@@H](CC(=O)O)C(N)=O` [CTX-1132, Tyr-Val-Nle-D-Phe-His-Phe-Arg-D-Trp-Asp] (H-YV[Nle][dF]HFR[dW]D-NH2), the “MC3R selectivity (relative to MC4R)” value on human MC4R stood at 6.8. Moreover, at human MC3R, it took 3.9 nM to reach a half-maximal effect (EC50).

Consider `CCCC[C@H](NC(=O)[C@@H](NC(=O)[C@@H](N)Cc1ccc(O)cc1)C(C)C)C(=O)N[C@H](Cc1ccccc1)C(=O)N[C@@H](Cc1c[nH]cn1)C(=O)N[C@@H](Cc1ccccc1)C(=O)N[C@@H](CCCNC(=N)N)C(=O)N[C@H](Cc1c[nH]c2ccccc12)C(=O)N[C@@H](CC(=O)O)C(=O)N[C@@H](CCCNC(=N)N)C(=O)N[C@@H](Cc1ccccc1)C(=O)NCC(=O)O` [CTX-1136, Tyr-Val-Nle-D-Phe-His-Phe-Arg-D-Trp-Asp-Arg-Phe-Gly] (H-YV[Nle][dF]HFR[dW]DRFG-OH), for which, on human MC4R, the “MC3R selectivity (relative to MC4R)” value came to 37. In addition, the EC50 at human MC3R was determined as 1.9 nM.

Take `CCCC[C@H](NC(C)=O)C(=O)N[C@H](CC)C(=O)N[C@@H](Cc1c[nH]cn1)C(=O)N[C@@H](Cc1ccccc1)C(=O)N[C@@H](CCCNC(=N)N)C(=O)N[C@H](Cc1c[nH]c2ccccc12)C(=O)N[C@@H](CC(=O)O)C(=O)N[C@@H](CCCNC(=N)N)C(=O)N[C@@H](Cc1ccccc1)C(=O)NCC(=O)O` [CTX-1144, Nle-D-Abu-His-Phe-Arg-D-Trp-Asp-Arg-Phe-Gly] (Ac-[Nle][dAbu]HFR[dW]DRFG-OH): the “MC3R selectivity (relative to MC4R)” value at human MC4R is on record as 2,633. This compound also had an EC50 at human MC3R of 6.6 nM.

For `CCCC[C@H](NC(=O)CNC(=O)COCCOCCNC(=O)CNC(=O)CCc1ccc(I)cc1)C(=O)N[C@H](C)C(=O)N[C@@H](Cc1c[nH]cn1)C(=O)N[C@@H](Cc1ccccc1)C(=O)N[C@@H](CCCNC(=N)N)C(=O)N[C@H](Cc1c[nH]c2ccccc12)C(=O)N[C@@H](CC(=O)O)C(=O)N[C@@H](CCCNC(=N)N)C(=O)N[C@@H](Cc1ccccc1)C(=O)NCC(=O)O` [CTX-1148, Gly-Nle-D-Ala-His-Phe-Arg-D-Trp-Asp-Arg-Phe-Gly], on human MC4R, the “MC3R selectivity (relative to MC4R)” value is 1197. Further, the midpoint of the response at human MC3R, the EC50, lay at 1.5 nM.

On to `CCCC[C@H](NC(=O)CNC(=O)COCCOCCNC(=O)CNC(=O)CCc1ccc(I)cc1)C(=O)N[C@H](C)C(=O)N[C@@H](Cc1c[nH]cn1)C(=O)N[C@@H](Cc1ccccc1)C(=O)N[C@@H](CCCNC(=N)N)C(=O)N[C@H](Cc1c[nH]c2ccccc12)C(=O)N[C@@H](CC(=O)O)C(=O)N[C@@H](CCCNC(=N)N)C(=O)N[C@H](Cc1ccccc1)C(=O)NCC(=O)O` [CTX-1154, Gly-Nle-D-Ala-His-Phe-Arg-D-Trp-Asp-Arg-D-Phe-Gly], for which the “MC3R selectivity (relative to MC4R)” value at human MC4R is 1070. On human MC3R, this compound returned a concentration for a half-maximal effect (EC50) of 5.8 nM.

As for `CCCC[C@H](NC(C)=O)C(=O)N[C@H](C)C(=O)N[C@@H](Cc1c[nH]cn1)C(=O)N[C@@H](Cc1ccccc1)C(=O)N[C@@H](CCCNC(=N)N)C(=O)N[C@H](Cc1c[nH]c2ccccc12)C(=O)NCC(=O)N[C@@H](CCCCN)C(=O)N1CCC[C@H]1C(=O)N[C@H](C(N)=O)C(C)C` [CTX-1164, Nle-D-Ala-His-Phe-Arg-D-Trp-Gly-Lys-Pro-Val] (Ac-[Nle][dA]HFR[dW]GKPV-NH2), the “MC3R selectivity (relative to MC4R)” value at human MC4R is recorded as 83. On human MC3R, this compound gave an EC50 of 1.5 nM.

Take `CCCC[C@H](NC(C)=O)C(=O)N[C@H](C)C(=O)N[C@@H](Cc1c[nH]cn1)C(=O)N[C@@H](Cc1ccc(Br)cc1)C(=O)N[C@@H](CCCNC(=N)N)C(=O)N[C@H](Cc1c[nH]c2ccccc12)C(=O)N[C@@H](CC(=O)O)C(=O)N[C@@H](CCCNC(=N)N)C(=O)N[C@@H](Cc1ccccc1)C(=O)NCC(=O)O` [CTX-1165, Nle-D-Ala-His-Phe(4-Br)-Arg-D-Trp-Asp-Arg-Phe-Gly] (Ac-[Nle][dA]H[Phe(4-Br)]R[dW]DRFG-OH): on human MC4R, the “MC3R selectivity (relative to MC4R)” value is recorded as 5598. Also, a half-maximal response on human MC3R (EC50) required 3 nM.

Take `CCCC[C@H](NC(C)=O)C(=O)N[C@H](C)C(=O)N[C@@H](Cc1c[nH]cn1)C(=O)N[C@@H](Cc1ccc(I)cc1)C(=O)N[C@@H](CCCNC(=N)N)C(=O)N[C@H](Cc1c[nH]c2ccccc12)C(=O)N[C@@H](CC(=O)O)C(=O)N[C@@H](CCCNC(=N)N)C(=O)N[C@@H](Cc1ccccc1)C(=O)NCC(=O)O` [CTX-1167, Nle-D-Ala-His-Phe(4-I)-Arg-D-Trp-Asp-Arg-Phe-Gly] (Ac-[Nle][dA]H[Phe(4-I)]R[dW]DRFG-OH): the “MC3R selectivity (relative to MC4R)” value at human MC4R came to 937. This compound also gave an EC50 on human MC3R of 4.8 nM.
